# Results published in patent publication US20260041744A1, “Methods for Treating Pompe Disease” (Amicus Therapeutics, Inc., priority 2022, published 2026).
# Tests used:
# [1] = Study ATB200-02: safety (TEAEs); conditions: in vivo
# Text: Mean (SD) duration of treatment was 37.2 (14.48), 19.9 (4.13) and 36.9 (12.14) months in cohorts 1 (prior ERT 2-6 years), 4 (prior ERT ≥7 years) and 3 (ERT naive), respectively.
# Mean (SD) duration of treatment was 46.3 (22.86) months.
# [2] = system: adults with Pompe disease; assay: Study ATB200-02: plasma/serum creatine kinase (CK); conditions: for mean reduction from baseline in plasma CK: b512 prints a minus sign
# Experimental: The change from baseline (CFBL) in 6MWD, % predicted sitting FVC, manual muscle test (MMT) and biomarkers—urine glucose tetrasaccharide (Hex4) and serum creatine kinase (CK)—were assessed at regular intervals.
# [3] = system: adult subjects with Pompe disease; assay: Pooled Studies ATB200-02/03/07: MMT lower extremity score by exposure interval
substance,measurement,setting,value
"ATB200/miglustat: two-component therapy: cipaglucosidase alfa (ATB200) administered in conjunction with miglustat (AT2221), a stabilizer of cipaglucosidase alfa",TEAE profile / tolerability,[1],most TEAEs were mild or moderate in severity and did not lead to study withdrawal
same,"Serum creatine kinase, % CFBL mean","[2]; Ambulatory ERT-experienced, 12 months",−20.5%
same,"Serum creatine kinase, % CFBL mean","[2]; Ambulatory ERT-experienced, 24 months",−29.9%
same,"Serum creatine kinase, % CFBL mean","[2]; Ambulatory ERT-experienced, 36 months",−30.0%
same,"Serum creatine kinase, % CFBL mean","[2]; Ambulatory ERT-experienced, 48 months",−35.3%
same,"Serum creatine kinase, % CFBL mean","[2]; Ambulatory ERT-naïve, 12 months",−50.6%
same,"Serum creatine kinase, % CFBL mean","[2]; Ambulatory ERT-naïve, 24 months",−46.5%
same,"Serum creatine kinase, % CFBL mean","[2]; Ambulatory ERT-naïve, 36 months",−50.7%
same,"Serum creatine kinase, % CFBL mean","[2]; Ambulatory ERT-naïve, 48 months",−35.9%
same,mean reduction from baseline in plasma CK,"[2]; Cohort 2 (non-ambulatory ERT-experienced), 12 months, listed as cipaglucosidase alfa plus miglustat",20.8%
same,mean reduction from baseline in plasma CK,"[2]; Cohort 2 (non-ambulatory ERT-experienced), 12 months, listed as cipaglucosidase alfa/miglustat",−20.8%
same,mean reduction from baseline in plasma CK,"[2]; Cohort 2, 24 months, listed as cipaglucosidase alfa plus miglustat",25.3%
same,mean reduction from baseline in plasma CK,"[2]; Cohort 2, 24 months, listed as cipaglucosidase alfa/miglustat",−25.3%
same,mean reduction from baseline in plasma CK,"[2]; Cohort 2, 36 months, listed as cipaglucosidase alfa plus miglustat",27.1%
same,mean reduction from baseline in plasma CK,"[2]; Cohort 2, 36 months, listed as cipaglucosidase alfa/miglustat",−27%
same,mean reduction from baseline in plasma CK,"[2]; Cohort 2, 48 months, listed as cipaglucosidase alfa plus miglustat",23.7%
same,mean reduction from baseline in plasma CK,"[2]; Cohort 2, 48 months, listed as cipaglucosidase alfa/miglustat",−23.7%
same,patients with abnormal baseline CK who had normal CK levels at Month 48,[2]; ERT-experienced (two of six),33.3%
same,patients whose plasma CK decreased numerically from baseline (n/N),"[2]; ERT-experienced, 12 months",13/15
same,patients whose plasma CK decreased numerically from baseline (n/N),"[2]; ERT-experienced, 24 months",14/15
same,patients whose plasma CK decreased numerically from baseline (n/N),"[2]; ERT-experienced, 36 months",9/11
same,patients whose plasma CK decreased numerically from baseline (n/N),"[2]; ERT-experienced, 48 months",8/9
same,CK status at Month 48 of patients with abnormal baseline CK,[2]; ERT-naïve (two of five abnormal at baseline),remained abnormal at Month 48
same,patients whose plasma CK decreased numerically from baseline (n/N),"[2]; ERT-naïve, 12 months",6/6
same,patients whose plasma CK decreased numerically from baseline (n/N),"[2]; ERT-naïve, 24 months",6/6
same,patients whose plasma CK decreased numerically from baseline (n/N),"[2]; ERT-naïve, 36 months",5/5
same,patients whose plasma CK decreased numerically from baseline (n/N),"[2]; ERT-naïve, 48 months",4/5
same,"Serum creatine kinase, % CFBL mean","[2]; Non-ambulatory ERT-experienced, 12 months",−20.8%
same,"Serum creatine kinase, % CFBL mean","[2]; Non-ambulatory ERT-experienced, 24 months",−25.3%
same,"Serum creatine kinase, % CFBL mean","[2]; Non-ambulatory ERT-experienced, 36 months",−27.1%
same,"Serum creatine kinase, % CFBL mean","[2]; Non-ambulatory ERT-experienced, 48 months",−23.7%
same,mean (SD) change from baseline in MMT lower extremity score,[3]; exposure >15 to ≤24 months (n=101),1.73 (3.675)
same,mean (SD) change from baseline in MMT lower extremity score,[3]; exposure >24 months (n=65),1.98 (4.527)
same,mean (SD) change from baseline in MMT lower extremity score,[3]; exposure ≤15 months (n=135),1.36 (3.807)
